Consider one molecule from patent US10022360B2, “Polymeric nanoparticles and methods of making and using same” (priority 2014, dated 2018).

The format of data set [1] is in vivo. To be noted: BT-474 xenografts in SCID mice, FIG. 15.
A short description of data set [2]: Blood glucose after acute treatment, non-tumor bearing SCID mice. It counts as in vivo. The note with it: FIG. 10.
A short description of another data set: in vivo. The note with it: mouse. On the procedure: NPs from Example 4 were prepared on a larger scale for MTD studies.

Take `NC1(c2ccc(-c3nc4ccn5c(=O)[nH]nc5c4cc3-c3ccccc3)cc2)CCC1` [COMPOUND A, 8-[4-(1-amino-cyclobutyl)phenyl]-9-phenyl-2H-[1,2,4]-triazolo-[3,4-f][1,6]-naphthyridin-3-one]: the “MTD dosing / toxicity (percent survival)” value in data set [1] is “exhibited toxicity”. Further, the “hyperglycemia following acute treatment” value in data set [2] is listed as “display hyperglycemia”. In “in vivo”, the MTD stood at 480 mg/kg.
